Source: patent US11964953B2, “Substituted aminothiazoles as DGKzeta inhibitors for immune activation” (Bayer Aktiengesellschaft, priority 2020, dated 2024)

target: human DGKζ (Homo sapiens (Human), UniProt Q13574); test: Human DGKζ kinase activity inhibition assay (ADP-Glo); assay type: biochemical; settings: in vitro human DGKζ kinase activity inhibition assay; read-out: IC50
Procedure, shortened: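 ADP-Glo luminescence, reflecting ADP produced, served as the readout of activity. Full-length human DGKζ, FLAG-tagged at the C-terminus and insect-cell expressed, was used; lipid substrate mix was sonicated with octyl-β-D-glucopyranoside in 50 mM MOPS pH 7.4.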

Sequence of human DGKζ (Q13574 other isoform, or with tags, fused parts or gaps): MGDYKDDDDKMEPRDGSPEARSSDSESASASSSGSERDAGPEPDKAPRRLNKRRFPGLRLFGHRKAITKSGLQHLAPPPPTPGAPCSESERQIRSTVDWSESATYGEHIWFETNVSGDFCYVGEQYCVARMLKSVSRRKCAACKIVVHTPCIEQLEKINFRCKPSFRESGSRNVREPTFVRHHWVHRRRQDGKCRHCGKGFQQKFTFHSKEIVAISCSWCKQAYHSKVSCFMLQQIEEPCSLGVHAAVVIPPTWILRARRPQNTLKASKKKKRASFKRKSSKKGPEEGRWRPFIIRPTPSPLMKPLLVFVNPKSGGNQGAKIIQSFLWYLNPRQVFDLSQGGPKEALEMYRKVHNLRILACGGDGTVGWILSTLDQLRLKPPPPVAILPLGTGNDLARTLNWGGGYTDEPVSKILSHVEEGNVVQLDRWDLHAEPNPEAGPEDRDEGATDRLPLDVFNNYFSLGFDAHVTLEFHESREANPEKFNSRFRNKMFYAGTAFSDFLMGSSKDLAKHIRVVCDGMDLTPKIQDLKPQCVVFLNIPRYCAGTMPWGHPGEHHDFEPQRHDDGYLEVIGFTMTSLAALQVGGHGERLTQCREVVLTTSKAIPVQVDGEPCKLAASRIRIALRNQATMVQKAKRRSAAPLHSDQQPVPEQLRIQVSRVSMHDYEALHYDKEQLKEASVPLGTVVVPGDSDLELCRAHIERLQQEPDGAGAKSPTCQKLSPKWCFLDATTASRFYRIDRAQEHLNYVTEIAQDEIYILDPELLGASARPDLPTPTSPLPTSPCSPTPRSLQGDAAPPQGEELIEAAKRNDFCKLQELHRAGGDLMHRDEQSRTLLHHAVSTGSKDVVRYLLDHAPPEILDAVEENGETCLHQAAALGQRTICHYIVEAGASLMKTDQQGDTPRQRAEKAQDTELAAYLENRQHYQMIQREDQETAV

Structure (SMILES) | IC50
CC(C(N)=O)N(c1ccc(F)cc1)c1nc(N)c(C(=O)c2ccc(Br)nc2)s1 (racemic) [Example 274, rac-2-(N-[4-amino-5-(6-bromopyridine-3-carbonyl)thiazol-2-yl]-4-fluoro-anilino)propanamide] | 107 nM
CC(C(N)=O)N(c1ccc(F)c(F)c1)c1nc(N)c(C(=O)c2ccc(OC(F)F)cc2)s1 (racemic) [Example 49, rac-2-(N-[4-amino-5-[4-(difluoromethoxy)benzoyl]thiazol-2-yl]-3,4-difluoro-anilino)propanamide] | 2.76 nM
CC(C(N)=O)N(c1ccc(F)cc1)c1nc(N)c(C(=O)c2ccc(C#N)c(F)c2)s1 (single isomer, unassigned) [Example 21.1, 2-(N-[4-amino-5-(4-cyano-3-fluoro-benzoyl)thiazol-2-yl]-4-fluoro-anilino)propanamide] | 5510 nM
COc1ccc(C(=O)c2sc(N(c3ccc(Cl)c(F)c3)C(C)C(N)=O)nc2N)cc1 (single isomer, unassigned) [Example 59.2, 2-(N-[4-amino-5-(4-methoxybenzoyl)thiazol-2-yl]-4-chloro-3-fluoro-anilino)propanamide] | 424 nM
CC(C(N)=O)N(c1ccc(F)cc1)c1nc(N)c(C(=O)c2ccc(OCC(=O)NC3CCCCC3)cc2)s1 (racemic) [Example 106, rac-2-(N-(4-amino-5-[4-[2-(cyclohexylamino)-2-oxo-ethoxy]benzoyl]thiazol-2-yl]-4-fluoro-anilino)propanamide] | 33.3 nM
CC(C(N)=O)N(c1ccc(C(F)(F)F)cc1)c1nc(N)c(C(=O)c2ccc(OC(F)F)cc2)s1 (racemic) [Example 43, rac-2-[N-[4-amino-5-[4-(difluoromethoxy)benzoyl]thiazol-2-yl-4-(trifluoromethyl)anilino]propanamide] | 11.1 nM
CC(C(N)=O)N(c1ccc(F)cc1)c1nc(N)c(C(=O)c2ccccc2)s1 (single isomer, unassigned) [Example 61.1, 2-(N-(4-amino-5-benzoyl-thiazol-2-yl)-4-fluoro-anilino)propanamide] | 5180 nM
CC(C(N)=O)N(c1ccc(Cl)cc1)c1nc(N)c(C(=O)c2ccc(F)cc2)s1 (single isomer, unassigned) [Example 37.2, 2-(N-[4-amino-5-(4-fluorobenzoyl)thiazol-2-yl]-4-chloro-anilino)propanamide] | 9.46 nM
CC(C(N)=O)N(c1nc(N)c(C(=O)c2ccccc2)s1)c1ccc(F)cc1Br (racemic) [Example 5, rac-2-(N-(4-amino-5-benzoyl-thiazol-2-yl)-2-bromo-4-fluoro-anilino)propanamide] | 757 nM
CC1CCCN(C(=O)COc2ccc(C(=O)c3sc(N(c4ccc(F)cc4)C(C)C(N)=O)nc3N)cc2)C1 (racemic) [Example 128, 2-(N-[4-amino-5-[4-[2-(3-methyl-1-piperidyl)-2-oxo-ethoxy]benzoyl]thiazol-2-yl]-4-fluoro-anilino)propanamide] | 72.2 nM
CC(C(N)=O)N(c1cnn(C)c1)c1nc(N)c(C(=O)c2ccccc2)s1 (single isomer, unassigned) [Example 78.1, 2-[(4-amino-5-benzoyl-thiazol-2-yl)-(1-methylpyrazol-4-yl)amino]propanamide] | > 20000 nM
CC(C(N)=O)N(c1ccc(F)cc1)c1nc(N)c(C(=O)c2ccc(C(F)F)nc2)s1 (racemic) [Example 159, rac-2-(N-[4-amino-5-[6-(difluoromethyl)pyridine-3-carbonyl]thiazol-2-yl]-4-fluoro-anilino)propanamide] | 214 nM
CC1CCN(c2ccc(C(=O)c3sc(N(c4ccc(F)cc4)C(C)C(N)=O)nc3N)cn2)CC1 (racemic) [Example 276, rac-2-(N-[4-amino-5-[6-(4-methyl-1-piperidyl)pyridine-3-carbonyl]thiazol-2-yl]-4-fluoro-anilino)propanamide] | 29 nM
CC(C(N)=O)N(c1ccc(Cl)c(OC(F)F)c1)c1nc(N)c(C(=O)c2ccccc2)s1 (racemic) [Example 238, rac-2-[N-(4-amino-5-benzoyl-thiazol-2-yl)-4-chloro-3-(difluoromethoxy)anilino]propanamide] | 667 nM
CC(C(N)=O)N(c1nc(N)c(C(=O)c2ccccc2)s1)c1ccc(F)cc1F (racemic) [Example 65, rac-2-(N-(4-amino-5-benzoyl-thiazol-2-yl)-2,4-difluoro-anilino)propanamide] | 101 nM
CC(C(N)=O)N(c1ccc(F)cc1)c1nc(N)c(C(=O)c2ccc(OCC(=O)N(C)CCc3ccccc3)cc2)s1 (racemic) [Example 127, rac-2-(N-[4-amino-5-[4-[2-[methyl(2-phenylethyl)amino]-2-oxo-ethoxy]benzoyl]thiazol-2-yl]-4-fluoro-anilino)propanamide] | 73.1 nM
CC(C(N)=O)N(c1ccc(Cl)cc1)c1nc(N)c(C(=O)c2ccc(F)cc2)s1 (racemic) [Example 37, rac-2-(N-[4-amino-5-(4-fluorobenzoyl)thiazol-2-yl]-4-chloro-anillno)propanamide] | 19.8 nM

Structure (SMILES) | IC50
CC(C(N)=O)N(c1ccc(F)cc1)c1nc(N)c(C(=O)c2ccc(OCC(=O)N3Cc4ccccc4C3)cc2)s1 (racemic) [Example 134, rac-2-(N-[4-amino-5-[4-(2-isoindolin-2-yl-2-oxo-ethoxy)benzoyl]thiazol-2-yl]-4-fluoro-anilino)propanamide] | 76.8 nM
CC(C(N)=O)N(c1ccc(F)cc1)c1nc(N)c(C(=O)c2ccc(OCc3ccccc3)cc2)s1 (racemic) [Example 158, rac-2-(N-[4-amino-5-(4-benzyloxybenzoyl)thiazol-2-yl]-4-fluoro-anilino)propanamide] | 6.71 nM
CC(C(N)=O)N(c1ccc(F)cc1)c1nc(N)c(C(=O)c2ccc(OCC(=O)N3CCOCC3)cc2)s1 (racemic) [Example 88, rac-2-(N-[4-amino-5-[4-(2-morpholino-2-oxo-ethoxy)benzoyl]thiazol-2-yl]-4-fluoro-anilino)propanamide] | 667 nM
CC(C(N)=O)N(c1nc(N)c(C(=O)c2ccccc2)s1)c1ccccc1F (single isomer, unassigned) [Example 75.1, 2-(N-(4-amino-5-benzoyl-thiazol-2-yl)-2-fluoro-anilino)propanamide] | > 20000 nM
CC(C(N)=O)N(c1ccc(OCc2ccccc2)cc1)c1nc(N)c(C(=O)c2ccccc2)s1 (racemic) [Example 199, rac-2-(N-(4-amino-5-benzoyl-thiazol-2-yl)-4-benzyloxy-anilino)propanamide] | 396 nM
CC(C(N)=O)N(c1ccc(F)cc1)c1nc(N)c(C(=O)c2ccc(OC(F)F)nc2)s1 (single isomer, unassigned) [Example 162.1, 2-(N-[4-amino-5-[6-(difluoromethoxy)pyridine-3-carbonyl]thiazol-2-yl]-4-fluoro-anilino)propanamide] | 12 nM
Cc1nc(N(c2ccc(F)c(F)c2)C(C)C(N)=O)sc1C(=O)c1ccc(OC(F)F)cc1 (racemic) [Example 55, rac-2-(N-[5-[4-(difluoromethoxy)benzoyl]-4-methyl-thiazol-2-yl]-3,4-difluoro-anilino)propanamide] | 9.74 nM
CC(C(N)=O)N(c1ccc(F)cc1)c1nc(N)c(C(=O)c2ccc(N3CCC(C)(C#N)CC3)nc2)s1 (racemic) [Example 285, rac-2-(N-[4-amino-5-[6-(4-cyano-4-methyl-1-piperidy!)pyridine-3-carbonyl]thiazol-2-yl]-4-fluoro-anilino)propanamide] | 68 nM
CC(C(N)=O)N(c1ccc(OC(F)(F)F)cc1)c1nc(N)c(C(=O)c2ccccc2)s1 (racemic) [Example 24, rac-2-[N-(4-amino-5-benzoyl-thiazol-2-yl)-4-(trifluoromethoxy)anilino]propanamide] | 115 nM
COc1ccc(N(c2nc(N)c(C(=O)c3ccc(F)cc3)s2)C(C)C(N)=O)cc1 (racemic) [Example 18, rac-2-(N-[4-amino-5-(4-fluorobenzoyl)thiazol-2-yl]-4-methoxy-anilino)propanamide] | 207 nM
CC(C(N)=O)N(c1ccc(F)c(F)c1)c1nc(N)c(C(=O)c2ccc(C(F)(F)F)nc2)s1 (single isomer, unassigned) [Example 53.2, 2-(N-[4-amino-5-[6-(trifluoromethyl)pyridine-3-carbonyl]thiazol-2-yl]-3,4-difluoro-anilino)propanamide] | 1780 nM
CC(C(N)=O)N(c1ccc(F)cc1)c1nc(N)c(C(=O)c2ccc(OCC(=O)Nc3ccc(Cl)cc3)cc2)s1 (racemic) [Example 119, rac-2-(N-[4-amino-5-[4-[2-(4-chloroanilino)-2-oxo-ethoxy]benzoyl]thiazol-2-yl]-4-fluoro-anilino)propanamide] | 4.54 nM
CC(C(N)=O)N(c1ccc(OC(F)F)c(Cl)c1)c1nc(N)c(C(=O)c2ccc(OC(F)F)cc2)s1 (racemic) [Example 201, rac-2-[N-[4-amino-5-[4-(difluoromethoxy)benzoyl]thiazol-2-yl]-3-chloro-4-(difluoromethoxy)anilino]propanamide] | 25 nM
CC(C(N)=O)N(c1ccc(F)cc1)c1nc(N)c(C(=O)c2ccc(C#N)c(F)c2)s1 (racemic) [Example 21, rac-2-(N-[4-amino-5-(4-cyano-3-fluoro-benzoyl)thiazol-2-yl]-4-fluoro-anilino)propanamide] | 142 nM
CC(C(N)=O)N(c1ccc(F)cc1)c1nc(N)c(C(=O)c2ccc(S(C)(=O)=O)cc2)s1 (racemic) [Example 19, rac-2-(N-[4-amino-5-(4-methylsulfonylbenzoyl)thiazol-2-yl]-4-fluoro-anilino)propanamide] | 200 nM
CC(C(N)=O)N(c1nc(N)c(C(=O)c2ccc(OC(F)F)cc2)s1)c1ccc(Cl)cc1F (single isomer, unassigned) [Example 46.1, 2-(N-[4-amino-5-[4-(difluoromethoxy)benzoyl]thiazol-2-yl]-4-chloro-2-fluoro-anilino)propanamide] | 1470 nM
